Measurements reported in BindingDB's records for doi:10.1097/00001756-199710200-00002 (Cnrs Upr 9023, 1997).
pKi: −log10 of the molar value. “And” between values parts separate entries of the source, which are not always exact repeats. Equal entries are not always repeated.

Key:
[1] = target: 5-hydroxytryptamine receptor 4 (Homo sapiens, UniProt Q13639)
[2] = target: 5-hydroxytryptamine receptor 4 (Rattus norvegicus, UniProt Q62758)
Sequence of 5-hydroxytryptamine receptor 4 (Rattus norvegicus, UniProt Q62758) (Q62758 whole entry): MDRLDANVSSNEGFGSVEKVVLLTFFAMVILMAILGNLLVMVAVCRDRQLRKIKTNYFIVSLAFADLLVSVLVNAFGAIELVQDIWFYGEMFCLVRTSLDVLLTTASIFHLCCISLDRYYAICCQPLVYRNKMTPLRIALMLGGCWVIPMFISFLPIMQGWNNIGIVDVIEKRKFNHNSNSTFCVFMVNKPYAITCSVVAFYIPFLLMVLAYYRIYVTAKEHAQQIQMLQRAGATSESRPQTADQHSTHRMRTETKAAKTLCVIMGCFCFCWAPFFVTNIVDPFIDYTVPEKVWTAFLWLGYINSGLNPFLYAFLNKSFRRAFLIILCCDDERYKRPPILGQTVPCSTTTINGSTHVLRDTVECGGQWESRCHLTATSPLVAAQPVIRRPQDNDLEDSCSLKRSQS

Sequence of 5-hydroxytryptamine receptor 4 (Homo sapiens, UniProt Q13639) (Q13639 whole entry): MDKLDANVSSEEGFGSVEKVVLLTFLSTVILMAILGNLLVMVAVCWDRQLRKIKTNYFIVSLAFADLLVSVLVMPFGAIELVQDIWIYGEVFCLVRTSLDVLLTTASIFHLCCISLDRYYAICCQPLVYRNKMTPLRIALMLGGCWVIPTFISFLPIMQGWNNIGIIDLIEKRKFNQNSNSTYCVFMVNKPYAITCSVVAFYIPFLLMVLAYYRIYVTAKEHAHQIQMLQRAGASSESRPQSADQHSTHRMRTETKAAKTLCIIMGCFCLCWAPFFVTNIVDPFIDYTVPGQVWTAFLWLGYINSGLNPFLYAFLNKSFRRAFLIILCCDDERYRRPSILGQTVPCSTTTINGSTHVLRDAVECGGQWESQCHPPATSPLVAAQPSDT

| Compound | pKi [1] | pKi [2] |
| --- | --- | --- |
| COc1ccc2[nH]c(=O)n(C(=O)OC3CC4CCC(C3)N4C)c2c1 (centres undefined) [DAU 6285] | 7.73 and 7.98 | 7.65 and 8.27 |
| NCCc1c[nH]c2ccc(C(N)=O)cc12 [[3H]-5-carboxamidotryptamine] |  | 5.04 |
| COc1ccc2[nH]cc(CCN)c2c1 [tryptamine, 5-Methoxy] | 6.81 | 6.91 |
| Cn1cc(C(=O)OCC2CCN(CCNS(C)(=O)=O)CC2)c2ccccc21 [GR 113808] | 10.70 and 10.05 | 10.70 and 10.52 |
| CC(C)n1c(=O)n(C(=O)NC2CC3CCC(C2)N3C)c2ccccc21 (centres undefined) [BIMU 8] | 7.34 | 7.72 |
| COc1[nH]c2ccc(F)cc2c1C(=O)OCC1CCN(CCNS(C)(=O)=O)CC1 [GR-125487] | 10.70 | 11.05 |
| COc1cc(N)c(Cl)cc1C(=O)NC1CCN2CCCC1C2 (centres undefined) [NSC_3035240] |  | 6.95 |
| COc1cc(N)c(Cl)cc1C(=O)NC1CN2CCC1CC2 (centres undefined) [ZACOPRIDE,R] | 6.55 | 6.73 |
